Assay results taken from paper PMC6646794 (Biochimica et Biophysica Acta. Molecular Cell Research, 2019).
Like-named read-outs stand apart in the source and are kept apart here.

Assays:
[1] = system: TRPM2 W1355A I1368A; assay: Whole cell patch-clamp, TRPM2 W1355A I1368A in HEK293 cells; format: cell-based, human
Experimental: (§1) HEK293 cells were kept at 37 °C and 5% CO2 in DMEM with 4.5 g/l glucose and GlutaMax-I (Gibco) supplemented with 10% (v/v) fetal bovine serum (Biochrom). Cells were split 1:10 to 1:20 twice a week.
The mutations W1355A and I1368A were inserted into the eukaryotic expression vector for TRPM2 (pIRES2-EGFP-TRPM2) by two sequential rounds of QuikChange mutagenesis using the following primer pairs: for W1355A: 5′-[…]-3′ and 5′-[…]-3′, for I1368A: 5′- […]-3′ and 5′-[…]-3′. The full open reading frame was confirmed by DNA sequencing (Eurofins MWG Operon, Ebersberg, Germany).
For patch clamp experiments wild type HEK293 cells were transfected with expression vectors for either wild type TRPM2 or TRPM2 W1355A/I1368A 24 h before the experiments. […] The intracellular solution contains 200 nM free Ca^2+ (calculated using MaxChelator, http://maxchelator.stanford.edu/CaEGTA-NIST.htm). Whole cell currents were recorded using a HEKA EPC-10 amplifier and PatchMaster software (HEKA Elektronik, Lamprecht, Germany). […]
For statistical analysis GraphPad Prism (v7.04 and v8.0.1; GraphPad Software) was used. […] After transformation all groups were normally distributed as assessed by D'Agostino & Pearson normality test. […]

[2] = system: TRPM2; details: cited from earlier work
[3] = system: wild-type TRPM2; assay: Whole cell patch-clamp, wild-type TRPM2 in HEK293 cells; format: cell-based, human; details: for whole cell current at 37 °C / whole cell current at room temperature: 200 nM free Ca2+, maximum current at +15 mV, median, 8–13 cells per condition; for effect of raising temperature to 37 °C on current: one-way ANOVA, Bonferroni
Experimental: as §1
For patch clamp experiments wild type HEK293 cells were transfected with expression vectors for either wild type TRPM2 or TRPM2 W1355A/I1368A 24 h before the experiments. To generate the transfection complex 2.5 μg of TRPM2 expression vector and 5 μl jetPEI reagent (PolyPlus Transfection, Strasbourg, France) were incubated for 30 min in a total volume of 250 μl (150 mM NaCl). Cells were detached from the culture bottle and adjusted to a density of 2.5 × 10^5 cells/ml. After addition of the transfection complex cells were seeded at low density to 35 mm cell culture dishes. Directly before the experiment the culture medium was replaced by bath solution (in mM: 140 N‑methyl‑D‑glucamine (NMDG), 5 KCl, 3.3 MgCl2, 1 CaCl2, 5 D‑glucose, 10 HEPES, adjusted to pH 7.4 with HCl). The replacement of Na^+ in the bath solution by NMDG (for which TRPM2 is impermeable) prevents cell rupture due to excessive current and the characteristic IV curve helps to distinguish activation of the nonselective cation channel from cells becoming leaky. […] The intracellular solution contains 200 nM free Ca^2+ (calculated using MaxChelator, http://maxchelator.stanford.edu/CaEGTA-NIST.htm). Whole cell currents were recorded using a HEKA EPC-10 amplifier and PatchMaster software (HEKA Elektronik, Lamprecht, Germany). To record TRPM2 activity, repetitive voltage ramps from −85 mV to +20 mV over 140 ms were applied every 5 s for 450 s. Before and in between ramps cells were clamped at −50 mV. Series resistance compensation was set to 70%. For temperature control the 35 mm dishes were placed inside an open culture dish incubator (DH-35i, Warner Instruments) connected to a single channel heater controller (TC-324C, Warner Instruments). Cells were continuously perfused at a flow rate of 0.3 ml/min with bath solution pre-warmed in a water bath.
For statistical analysis GraphPad Prism (v7.04 and v8.0.1; GraphPad Software) was used. Currents obtained from whole cell recordings tend to be positively skewed and were therefore log-transformed to achieve normality. After transformation all groups were normally distributed as assessed by D'Agostino & Pearson normality test. Data were tested by one-way ANOVA. p values from post-hoc comparisons between groups were adjusted for multiple comparison using Bonferroni correction. A significance level of α = 0.05 was adopted.

[4] = system: NudT9H domain; assay: Thermal unfolding of NudT9H by nDSF; format: binding, human; details: NudT9H with ADPR versus without
Experimental: The intrinsic fluorescence at 330 and 350 nm after excitation at 280 nm is used to monitor the fluorescence change upon heat unfolding. […] Buffer conditions were 25 mM Tris (pH 7.4), 150 mM NaCl, 2 mM CaCl2, 10% (v/v) glycerol. The first derivative of the unfolding curves was used to determine the transition midpoint. Simultaneously, protein aggregation was followed by light scattering.

[5] = room temperature, 100 μM agonist in pipette
[6] = wild-type TRPM2, 100 μM agonist in pipette, room temperature to 37 °C

| Compound | current compared to ADPR ([1]; 100 μM in pipette, room temperature and 37 °C) | TRPM2 current compared with ADPR ([2]; basal Ca2+ concentrations, ref [22]) | Ca2+ sensitivity of TRPM2 activation ([2]; ref [22]) | whole cell current at 37 °C ([3]; 100 μM agonist in pipette) [nA] | whole cell current at room temperature [3, 5] | effect of raising temperature to 37 °C on current [3, 6] | current compared to ADPR ([3]; wild-type TRPM2, 100 μM in pipette, room temperature, compared with 100 μM ADPR) | TRPM2 agonism ([2]; ref [21]) | effect of raising temperature to 37 °C on current ([1]; 100 μM agonist in pipette, room temperature to 37 °C, one-way ANOVA, Bonferroni) | stabilizing effect on NudT9H [4] | TRPM2 agonism ([2]; ref [20]) | Ca2+ dependence of TRPM2 activation by ADPR ([2]; removal of both intra- and extracellular Ca2+, ref [15]) | effect of temperature >35 °C on evoked TRPM2 current ([2]; temperatures >35 °C, ref [17]) | increase of current from room temperature to 37 °C ([3]; 100 μM agonist in pipette, room temperature to 37 °C, median values) [fold] |
| --- | --- | --- | --- | --- | --- | --- | --- | --- | --- | --- | --- | --- | --- | --- |
| Nc1ncnc2c1ncn2[C@H]1C[C@H](O)[C@@H](COP(=O)(O)OP(=O)(O)OC[C@H]2OC(O)[C@H](O)[C@@H]2O)O1 (some centres unmarked) [2′-deoxy-ADPR, 2′-deoxy-adenosine diphosphate (ADP)-ribose] | did not significantly differ from that with ADPR | elicits much higher TRPM2 currents than ADPR | less sensitive to Ca^2+ | 1.4 | 4.5 nA | did not significantly increase | significantly higher at room temperature | – | – | – | – | – | – | – |
| ADP-ribose-2′-phosphate [2′-P-ADPR] | – | – | – | – | – | – | – | acts as partial agonist | – | – | – | – | – | – |
| Adenosine diphosphate ribose [ADPR] | – | – | – | 2.2 | 150 pA | significantly increased | – | – | no significant increase | ruling out a stabilizing effect of ADPR on NudT9H | activates the channel | completely prevents activation of the channel by ADPR | significantly potentiates the current evoked by ADPR | > 10 |
